Results published in publication PMC8329300, “X-ray crystallography reveals molecular recognition mechanism for sugar binding in a melibiose transporter MelB” (Communications Biology, 2021).
Like-named read-outs stand apart in the source and are kept apart here.

Target: T1, D59C MelBSt (Salmonella typhimurium, UniProt P30878, D59C)
T1 construct: Cys scanning mutagenesis for the full-length MelBSt; His10 (C); made in house; host or cells: E. coli DW2
Test: biochemical
Format: binding
Description: All ITC ligand-binding assays were performed with the TA Instruments (Nano-ITC device) at 25 °C. In a typical experiment, the titrand (MelBSt) in the ITC sample cell was titrated with the specified titrant (placed in the Syringe) by an incremental injection of 2-µL aliquots at an interval of 300 s at a constant stirring rate of 250 r.p.m. All samples were degassed using a TA Instruments Degassing Station (model 6326) for 15 min prior to the titration. Data processing was performed with the NanoAnalyze (version 3.6.0 software) provided with the ITC equipment. The normalized heat changes were subtracted from the heat of dilution elicited by last few injections, where no further binding occurred; the corrected heat changes were plotted against the molar ratio of titrant versus titrand. The values for association constant (Ka) value were determined by fitting the data with a one-site independent-binding model. At most cases, the binding stoichiometry (N) number was fixed to 1 since it is a known parameter, which can restrain the data fitting and achieve more accurate results. The dissociation constant Kd = 1/Ka.
Supplementary Figure 1. ITC measurements. ITC measurements were performed at 25 °C as described in Methods. (a) Binding thermography. For all tests, ligands and proteins are buffer- […]
(1 picture or pasted object on this page, not shown here) […]
matched. For melibiose binding measurements, a solution of 80 mM or 10 mM in the absence or presence of NaCl at 100 mM, was injected into the ITC sample cell containing the WT MelBSt at 80 μM without or with 100 mM NaCl, respectively. With the D59C mutant, […] was used. For α-NPG binding measurements, 0.5 mM or 0.4 mM solution was used to titrate the WT or D59C mutant at 50 μM in the absence or presence or 100 mM NaCl, respectively. For the Na+ or Li+ binding measurements, 5 mM or 2 mM solution was used to titrate WT MelBSt at 80 μM without or with 50 mM melibiose, respectively; 40 mM solutions was used to titrate the D59C mutant. (b) binding isotherm. Curve fit was carried out with a one-site independent-binding model included in the NanoAnalyze software (version 3.6.0).

T1 sequence (P30878 whole entry D59C): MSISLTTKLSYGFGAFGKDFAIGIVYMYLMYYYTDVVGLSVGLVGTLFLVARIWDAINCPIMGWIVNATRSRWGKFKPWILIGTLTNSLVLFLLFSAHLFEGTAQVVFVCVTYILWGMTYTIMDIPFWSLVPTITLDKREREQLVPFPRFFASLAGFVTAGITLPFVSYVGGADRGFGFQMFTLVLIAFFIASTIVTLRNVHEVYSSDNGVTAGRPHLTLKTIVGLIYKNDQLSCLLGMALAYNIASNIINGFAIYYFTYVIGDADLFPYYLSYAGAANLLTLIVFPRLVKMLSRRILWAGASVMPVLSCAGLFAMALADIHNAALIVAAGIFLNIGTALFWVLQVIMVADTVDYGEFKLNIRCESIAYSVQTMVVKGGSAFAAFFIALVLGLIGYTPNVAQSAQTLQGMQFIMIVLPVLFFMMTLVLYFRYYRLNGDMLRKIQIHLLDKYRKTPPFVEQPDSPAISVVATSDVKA

Row | SMILES | Kd (Apo, ITC 25 °C, read-out: Kd of substrate binding, Melibiose) | Kd (Na+ (100 mM), ITC 25 °C, read-out: Kd of substrate binding, Melibiose) | Kd lower than that of WT (apo state, melibiose binding) | Kd (read-out: Kd value for melibiose binding) | Kd (Kd of substrate binding, α-NPG, Apo, ITC 25 °C) | Kd (Kd of substrate binding, α-NPG, Na+ (100 mM), ITC 25 °C) | increased affinity versus WT (apo D59C mutant)
1 | OC[C@H]1O[C@H](OCC2O[C@@H](O)[C@H](O)[C@@H](O)[C@@H]2O)[C@H](O)[C@@H](O)[C@H]1O (stereo partly shown) [Melibiose] | 4.66 ± 0.1 mM | 4.96 ± 0.11 mM | 2 fold | 6 mM | – | – | –
2 | O=[N+]([O-])c1ccc(OC2OC(CO)C(O)C(O)C2O)cc1 [α-NPG, 4-nitrophenyl-α-D-galactopyranoside] | – | – | – | – | 0.0105 ± 0.00134 mM | 0.01197 ± 9e-05 mM | about 4 fold
